Experimental data from the supplement of paper PMC10307832.

Experiments:
Experiment in all cases: relative viability (nuclei count vs DMSO), 5 days (fraction); higher = more cells survive
[1] = compound: CN(C)C[C@@H]1CCn2cc(c3ccccc32)C2=C(C(=O)NC2=O)c2cn(c3ccccc23)CCO1 [Ruboxistaurin] + CC1(C)CCC(c2ccc(Cl)cc2)=C(CN2CCN(c3ccc(C(=O)NS(=O)(=O)c4ccc(N[C@H](CCN5CCOCC5)CSc5ccccc5)c(S(=O)(=O)C(F)(F)F)c4)cc3)CC2)C1 [Navitoclax] (partner 0.5 µM)
How it was run: (§1)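 Dosing by pin tool came one day after lung cancer cell lines were seeded in 1536-well plates, using either one drug or a fixed anchor-drug dose plus five library-drug doses (not always all listed) in √10 steps. After 5 days, nuclei were counted on 4× images. Relative viability is treated-well nuclei count divided by vehicle-well nuclei count, and values are medians of duplicate plates.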

[2] = compound: CN(C)C[C@@H]1CCn2cc(c3ccccc32)C2=C(C(=O)NC2=O)c2cn(c3ccccc23)CCO1 [Ruboxistaurin] + COc1cc2c(Oc3ccc(NC(=O)C4(C(=O)Nc5ccc(F)cc5)CC4)cc3F)ccnc2cc1OCCCN1CCOCC1 [Foretinib] (partner 0.25 µM)
How it was run: as §1

Ruboxistaurin + OSI-027 = compound: CN(C)C[C@@H]1CCn2cc(c3ccccc32)C2=C(C(=O)NC2=O)c2cn(c3ccccc23)CCO1 [Ruboxistaurin] + COc1cccc2cc(-c3nc([C@H]4CC[C@H](C(=O)O)CC4)n4ncnc(N)c34)[nH]c12 [OSI-027] (partner 0.5 µM)
How it was run: as §1

[3] = compound: CN(C)C[C@@H]1CCn2cc(c3ccccc32)C2=C(C(=O)NC2=O)c2cn(c3ccccc23)CCO1 [Ruboxistaurin] + Cc1cc(Nc2cc(N3CCN(C)CC3)nc(Sc3ccc(NC(=O)C4CC4)cc3)n2)n[nH]1 [Tozasertib] (partner 0.1 µM)
How it was run: as §1

[4] = compound: CN(C)C[C@@H]1CCn2cc(c3ccccc32)C2=C(C(=O)NC2=O)c2cn(c3ccccc23)CCO1 [Ruboxistaurin] + Nc1nc2[nH]cc(CCc3ccc(C(=O)N[C@@H](CCC(=O)O)C(=O)O)cc3)c2c(=O)[nH]1 [Pemetrexed] (partner 0.2 µM)
How it was run: as §1

Cell Line	relative viability ([1]; first compound 0.08 µM)	relative viability ([1]; first compound 0.8 µM)	relative viability ([1]; first compound 2.53 µM)	relative viability ([1]; first compound 8 µM)	relative viability ([2]; first compound 0.08 µM)	relative viability ([2]; first compound 0.8 µM)	relative viability ([2]; first compound 2.53 µM)	relative viability ([2]; first compound 8 µM)	relative viability (Ruboxistaurin + OSI-027; first compound 0.08 µM)	relative viability (Ruboxistaurin + OSI-027; first compound 0.8 µM)	relative viability (Ruboxistaurin + OSI-027; first compound 2.53 µM)	relative viability (Ruboxistaurin + OSI-027; first compound 8 µM)	relative viability ([3]; first compound 0.08 µM)	relative viability ([3]; first compound 0.8 µM)	relative viability ([3]; first compound 2.53 µM)	relative viability ([3]; first compound 8 µM)	relative viability ([4]; first compound 0.08 µM)	relative viability ([4]; first compound 0.8 µM)	relative viability ([4]; first compound 2.53 µM)	relative viability ([4]; first compound 8 µM)
NCI-H2405	1.09	0.654	0.917	0.963	1.07	0.961	0.998	1.01	0.652	0.592	0.633	0.56	0.764	0.613	0.726	0.722	1.13	1.04	1.11	1.01
NCI-H3122	1.02	0.919	1	1.09	0.938	0.982	1.01	0.975	0.921	0.811	0.886	0.582	0.426	0.43	0.426	0.334	0.191	0.201	0.191	0.187
PC-3 [JPC-3]	0.89	0.757	0.813	0.829	1.06	1.03	1.02	1.09	0.922	0.701	0.72	0.622	0.91	0.852	0.852	0.841	1.22	1.09	1.17	1.04
PC-14	1.03	0.988	1.02	1.08	1.01	0.87	1	0.984	1.12	0.721	0.811	0.452	0.596	0.518	0.546	0.532	0.135	0.136	0.136	0.115
RERF-LC-KJ	1.36	0.977	0.881	0.833	0.879	0.777	0.864	0.869	0.627	0.497	0.461	0.415	0.515	0.401	0.49	0.462	0.48	0.46	0.483	0.446
SK-LU-1	0.843	0.857	0.949	0.829	0.93	0.809	0.772	0.683	0.386	0.322	0.307	0.264	0.414	0.33	0.323	0.265	0.944	0.913	1.12	0.954
SK-MES-1	1.35	1.15	1.4	1.09	1.08	0.791	0.969	0.858	0.676	0.554	0.525	0.327	0.948	0.808	0.887	0.789	0.997	0.899	1.01	0.863
SW 1573	0.978	0.791	1.01	0.854	1.15	0.866	1.03	0.762	0.729	0.459	0.541	0.494	0.256	0.19	0.168	0.124	0.923	0.803	0.795	0.704
UMC-11	0.312	0.28	0.294	0.248	1.05	0.951	0.904	0.646	0.437	0.403	0.37	0.301	0.203	0.211	0.248	0.177	0.823	0.721	0.688	0.606
